The source of these data is patent publication US11857522B2, “Compositions containing tucaresol or its analogs” (BeyondSpring Pharmaceuticals, Inc., priority 2016, dated 2024).

SMILES strings stand for the structures.

The experiment concerns MC-38 tumor cells. The experiment can be described thus: MC-38 tumor model, comparison of tucaresol and CTLA-4 antibody (Example 9). In kind it is in vivo, mice. The conditions noted are these: FIG. 4. As to the method:
The treatment with the combination of tucaresol, a PD-1 antibody, and CTLA-4 antibody was compared with the combination of PD-1 antibody and CTLA-4 antibody for their tumor inhibition effects. The tests were performed using seven to ten-week old immune competent mice that were injected subcutaneously with MC-38 tumor cells.
Three testing groups were prepared. Group A was administered with PD-1 antibody (3 mg/kg)/CTLA-4 antibody (3 mg/kg) combined treatment; Group B was administered with a tucaresol (10 mg/kg)/PD-1 antibody (3 mg/kg) CTLA-4 antibody (3 mg/kg) combined treatment; and Group C was administered with a PD-1 antibody (3 mg/kg)/CTLA-4 antibody (10 mg/kg) combined treatment. […]
Each treatment started at tumor size between 40-150 mm^3 and continued until Day 24. To determine the efficacy of each treatment, the following data were collected: mortality rate; the body weight of the mice assessed twice weekly both prior to treatments; the rate of tumor growth as determined by the tumor size measurement (twice every week); the tumor growth index; overall survival rate; the time required to double tumor size and the tumor weight at necropsy.

For the compound `O=Cc1c(O)cccc1OCc1ccc(C(=O)O)cc1` [tucaresol, 4-[(2-formyl-3-hydroxy-phenoxy)methyl]benzoic acid], the “anti-tumor effect of the combination (MC 38 tumor growth)” value (tucaresol 10 mg/kg added to PD-1 antibody (3 mg/kg)/CTLA-4 antibody (3 mg/kg), compared with raising CTLA-4 antibody from 3 mg/kg to 10 mg/kg, until Day 24) is given as “increased the anti-tumor effect of the combination to a greater extent than increasing the dose of the CTLA-4 antibody”. The inhibiting tumor growth entry (used together with immune checkpoint inhibitors such as PD-1 antibody, MC-38 tumors in mice) is reported as “more effective in inhibiting tumor growth than CTLA-4 antibody”.
